One may read the pest or weed control as how far the test organism was held down.

This note sets out measurements from patent US8536351B2, “2-aryl-5-heterocyclyl-cyclohexane-1,3,dione compounds and their use as herbicides” (Syngenta Crop Protection LLC, priority 2007, dated 2013).

Common to all, as to format: in vivo
Assay [1] deals with Digitaria sanguinalis (DIGSA). As to the kind of experiment: Pre-emergence activity, glasshouse pot test (100=total damage to plant; 0=no damage to plant). The conditions noted are these: rate 500 g/ha, evaluated 19, 20 or 21 days after spraying. The method, then: (§1) Monocotyledonous and dicotyledonous test plants were sown in standard soil in pots. After cultivation for one day (pre-emergence) or after 10 days cultivation (post-emergence) under controlled conditions in a glasshouse, the plants were sprayed with an aqueous spray solution derived from the formulation of the technical active ingredient in 0.6 ml acetone and 45 ml formulation solution containing 10.6% Emulsogen EL (Registry number 61791-12-6), 42.2% N-methyl pyrrolidone, 42.2% dipropylene glycol monomethyl ether (Registry number 34590-94-8) and 0.2% X-77 (Registry number 11097-66-8). The test plants were then grown in a greenhouse under optimum conditions until, 14 or 15 days later for post-emergence and 19, 20 or 21 days for pre-emergence, the test was evaluated (100=total damage to plant; 0=no damage to plant). Alopecurus myosuroides (ALOMY), Avena fatua (AVEFA), Lolium perenne (LOLPE), Setaria faberi (SETFA), Digitaria sanguinalis (DIGSA), Echinochloa crus-galli (ECHCG) Pre-Emergence Activity

Assay [2] has as its system Avena fatua (AVEFA). The assay is described as above. The conditions noted are these: rate 500 g/ha, evaluated 19, 20 or 21 days after spraying. On the procedure:
as §1

In assay [3] the test system is Alopecurus myosuroides (ALOMY). The description is as above. Particulars: rate 500 g/ha, evaluated 19, 20 or 21 days after spraying. On the procedure: as §1
Assay [4] deals with Setaria faberi (SETFA). Described as above. The conditions noted are these: rate 500 g/ha, evaluated 19, 20 or 21 days after spraying. On the procedure:
as §1

In assay [5] the test system is Lolium perenne (LOLPE). Described as above. Particulars: rate 500 g/ha, evaluated 19, 20 or 21 days after spraying. On the procedure: as §1
The test system of assay [6] is Echinochloa crus-galli (ECHCG). The description is as above. Particulars: rate 500 g/ha, evaluated 19, 20 or 21 days after spraying. The method, then: as §1
The subject of assay [7] is Digitaria sanguinalis (DIGSA). As to the kind of experiment: Post-emergence activity, glasshouse pot test (100=total damage to plant; 0=no damage to plant). The conditions noted are these: evaluated 14 or 15 days after spraying; for pest or weed control at 500 g/ha: rate 500 g/ha. On the procedure:
as §1, with “Post-Emergence” for “Pre-Emergence”

Assay [8] relates to Avena fatua (AVEFA). The assay is described as above. Particulars: 336 h, evaluated 14 or 15 days after spraying; for pest or weed control at 500 g/ha: rate 500 g/ha. The method, then:
as §1, with “Post-Emergence” for “Pre-Emergence”

The subject of assay [9] is Alopecurus myosuroides (ALOMY). The description is as above. The conditions noted are these: 336 h, evaluated 14 or 15 days after spraying; for pest or weed control at 500 g/ha: rate 500 g/ha. On the procedure:
as §1, with “Post-Emergence” for “Pre-Emergence”

The test system of assay [10] is Setaria faberi (SETFA). Described as above. The conditions noted are these: evaluated 14 or 15 days after spraying; for pest or weed control at 500 g/ha: rate 500 g/ha. The method, then: as §1, with “Post-Emergence” for “Pre-Emergence”
The test system of assay [11] is Lolium perenne (LOLPE). The assay is described as above. Particulars: 336 h, evaluated 14 or 15 days after spraying; for pest or weed control at 500 g/ha: rate 500 g/ha. On the procedure: as §1, with “Post-Emergence” for “Pre-Emergence”
Assay [12] concerns Echinochloa crus-galli (ECHCG). The description is as above. The conditions noted are these: evaluated 14 or 15 days after spraying; for pest or weed control at 500 g/ha: rate 500 g/ha. The method, then: as §1, with “Post-Emergence” for “Pre-Emergence”

`CCc1cc(C)cc(C)c1C1=C(O)CC(C2CCCSC2)CC1=O` (stereo not drawn) [Compound T16]: the pest or weed control at 500 g/ha in assay [1] came to 100%; in the assay on Avena fatua (AVEFA) [2] it was 100%; in [3] it was 0%; with Setaria faberi (SETFA) [4] it was 100%; with Lolium perenne (LOLPE) [5] it was 100%; in assay [6], 100%. Moreover, the pest or weed control at 500 g/ha in assay [7] was 100%; in the assay on Avena fatua (AVEFA) [8] it was 80%; in assay [9], 100%; with Setaria faberi (SETFA) [10], 100%; with Lolium perenne (LOLPE) [11], 90%; in assay [12], 90%.

`CCc1cc(C)cc(C)c1C1=C(O)CC(C2CCSCC2)CC1=O` (stereo not drawn) [Compound T21]: the pest or weed control at 500 g/ha in assay [1] was 100%; in the assay on Avena fatua (AVEFA) [2] it was 70%; in assay [3], 40%; in the assay on Setaria faberi (SETFA) [4] it was 100%; with Lolium perenne (LOLPE) [5] it was 40%; in assay [6], 100%. Also, the pest or weed control at 500 g/ha in assay [7] worked out at 80%; in the assay with Avena fatua (AVEFA) [8], 70%; in [9], 80%; with Setaria faberi (SETFA) [10], 90%; with Lolium perenne (LOLPE) [11] it was 70%; in assay [12] it was 100%.

As to `CCc1cc(C)cc(CC)c1C1=C(OC(=O)C(C)(C)C)CC(C2CCS(=O)(=O)CC2)CC1=O` (stereo not drawn) [Compound P3], the pest or weed control at 500 g/ha amounted to 100% in assay [1]; 80% in the assay with Avena fatua (AVEFA) [2]; 90% in [3]; 90% in the assay on Setaria faberi (SETFA) [4]; 90% with Lolium perenne (LOLPE) [5]; 100% in assay [6]. Moreover, the pest or weed control at 125 g/ha in assay [7] (rate 125 g/ha) was found to be 70%; in the assay on Avena fatua (AVEFA) [8] (rate 125 g/ha), 30%; in [9] (rate 125 g/ha), 70%; in the assay with Setaria faberi (SETFA) [10] (rate 125 g/ha) it was 60%; with Lolium perenne (LOLPE) [11] (rate 125 g/ha), 0%; in assay [12] (rate 125 g/ha), 60%.

With `CCc1cc(C)cc(CC)c1C1=C(O)CC(C2CCSCC2)CC1=O` (stereo not drawn) [Compound T18], the pest or weed control at 500 g/ha (in assay [1]; with Avena fatua (AVEFA) [2]; in [3]; with Setaria faberi (SETFA) [4]; in the assay on Lolium perenne (LOLPE) [5]; in assay [6]) was 100% each time. Besides, the pest or weed control at 500 g/ha in assay [7] is 100%; in the assay on Avena fatua (AVEFA) [8] it was 100%; in [9], 90%; in the assay on Setaria faberi (SETFA) [10] it was 100%; in the assay with Lolium perenne (LOLPE) [11], 70%; in [12], 70%.

With `CCc1ccc(-c2ccc(Cl)cc2)cc1C1=C(O)CC(C2CCOCC2)CC1=O` (stereo not drawn) [Compound T8], the pest or weed control at 500 g/ha in assay [1] stood at 100%; with Avena fatua (AVEFA) [2], 60%; in assay [3] it was 100%; in the assay on Setaria faberi (SETFA) [4], 100%; with Lolium perenne (LOLPE) [5], 80%; in [6], 100%. The pest or weed control at 500 g/ha was 90% in [7]; 70% in the assay on Avena fatua (AVEFA) [8]; 80% in [9]; 90% in the assay with Setaria faberi (SETFA) [10]; 100% in the assay with Lolium perenne (LOLPE) [11]; 90% in assay [12].

Regarding `CCc1ccc(-c2ccc(Cl)cc2)cc1C1=C(O)CC(C2CCOC2)CC1=O` (stereo not drawn) [Compound T6], the pest or weed control at 500 g/ha in assay [1] worked out at 100%; with Avena fatua (AVEFA) [2], 20%; in assay [3], 90%; in the assay on Setaria faberi (SETFA) [4] it was 100%; in the assay with Lolium perenne (LOLPE) [5] it was 100%; in assay [6] it was 100%. The pest or weed control at 500 g/ha was 100% in assay [7]; 90% in the assay on Avena fatua (AVEFA) [8]; 100% in assay [9]; 100% in the assay on Setaria faberi (SETFA) [10]; 100% with Lolium perenne (LOLPE) [11]; 100% in assay [12].
